# Assay results as given in US12628827B2, “Isoxazoline compounds and their use as pest control agents” (PI INDUSTRIES LIMITED, priority 2020, dated 2026).
# Tests used:
# Type in all cases: in vivo
# [1] = tested on: Amrasca biguttulla biguttulla; experiment: Amrasca biguttulla biguttulla leaf dip method; conditions: Solanum melongena, foliar, brinjal leaves, second instar nymphs, 72 h after release, dead + moribund vs untreated control, read-out: percent mortality
# Protocol: (§1) The leaf dip method was used for testing, wherein the required quantity of the compound was weighed and dissolved in a tube containing solvent solution. The tube was put on a vortex at 2000 rpm for 90 min for proper mixing, then, diluted with 0.01% Triton-X solution to the desired test concentration. Brinjal leaves were dipped in the compound solution for 10 seconds, shade dried for 20 min and then placed, with the abaxial side of the leaf up, in single cells of a bio-assay tray containing 4 mL of a solidified 1% agar-agar solution. Known numbers of second instar nymphs were released into the cell with the treated leaf and the cell was covered with a perforated lid for better aeration. The trays were kept in a plant growth chamber at a temperature of 25° C. and a relative humidity of 70%. Observations on dead, moribund and alive nymphs were recorded 72 h after the release. Percent mortality was calculated by combining dead and moribund nymphs and comparing the result with the one of the untreated control. The compounds 1, 2 and 40 recorded ≥70 percent mortality @ 300 PPM.
# Scirtothrips dorsalis = Scirtothrips dorsalis leaf dip method; conditions: foliar, capsicum leaves, second instar nymphs, 72 h after release, dead + moribund vs untreated control, read-out: percent mortality
# Protocol: as §1, with “Capsicum” for “Brinjal”
# Tetranychus urticae = Tetranychus urticae leaf dip method; conditions: foliar, French bean leaves, third instar nymphs, 72 h after release, dead + moribund vs untreated control, read-out: percent mortality
# Protocol: The leaf dip method was used for testing, wherein the required quantity of the compound was weighed and dissolved in a tube containing solvent solution. The tube was put on a vortex at 2000 rpm for 90 min for proper mixing, then, diluted with 0.01% Triton-X solution to the desired test concentration. French bean leaves were dipped in the compound solution for 10 seconds, shade dried for 20 min and then placed, with the abaxial side of the leaf up, in single cells of a bio-assay tray containing 4 mL of a solidified 1% agar-agar solution. Known numbers of third instar nymphs were released into the cell with the treated leaf and the cell was covered with a perforated lid for better aeration. The trays were kept in a plant growth chamber at a temperature of 25° C. and a relative humidity of 70%. Observations on dead, moribund and alive nymphs were recorded 72 h after the release. Percent mortality was calculated by combining dead and moribund nymphs and comparing the result with the one of the untreated control. The compounds 1 2 26 38 40 46 47 48 and 49 recorded ≥70 percent mortality @ 300 PPM.
# Plutella xylostella = Plutella xylostella leaf dip method; conditions: foliar, cabbage leaves, second instar larvae, 72 h after release, dead + moribund vs untreated control, read-out: per cent mortality
# Protocol: The leaf dip method was used for testing, wherein the required quantity of the compound was weighed and dissolved in a tube containing solvent solution. The tube was put on a vortex at 2000 rpm for 90 min for proper mixing, then, diluted with a 0.01% Triton-X solution to the desired test concentration. Cabbage leaves were dipped in the compound solution for 10 seconds, shade dried for 20 min and then transferred into the cells of bioassay trays. A single second instar larva was released into each cell and the tray was covered with a lid. The bio-assay trays were then kept under laboratory conditions at a temperature of 25° C. and a relative humidity of 70%. Observations on dead, moribund and alive larvae were recorded 72 h after the release. Percent mortality was calculated by combining dead and moribund larvae and comparing the result to the one of the untreated control. The compounds, […]
SMILES,mortality at 300 ppm [1],mortality at 300 ppm (Scirtothrips dorsalis),mortality at 300 ppm (Tetranychus urticae),mortality at 300 ppm (Plutella xylostella)
"Cc1cc(C2=NOC(c3cc(Cl)c(F)c(Cl)c3)(C(F)(F)F)C2)ccc1C(=O)Nc1nc(C(F)(F)F)n(C)n1 (stereo not shown) [Compound 1, 4-(5-(3,5-dichloro-4-fluorophenyl)-5-(trifluoromethyl)-4,5-dihydroisoxazol-3-yl)-2-methyl-N-(1-methyl-5-(trifluoromethyl)-1H-1,2,4-triazol-3-yl)benzamide]",≥ 70%,≥ 70%,≥ 70%,–
"Cc1cc(C2=NOC(c3cc(Cl)cc(Cl)c3)(C(F)(F)F)C2)ccc1C(=O)Nc1nc(C(F)(F)F)n(C)n1 (stereo not shown) [Compound 2, 4-(5-(3,5-dichlorophenyl)-5-(trifluoromethyl)-4,5-dihydroisoxazol-3-yl)-2-methyl-N-(1-methyl-5-(trifluoromethyl)-1H-1,2,4-triazol-3-yl)benzamide]",≥ 70%,≥ 70%,≥ 70%,–
"Cc1cc(C2=NOC(c3cc(Cl)c(F)c(Cl)c3)(C(F)(F)F)C2)ccc1C(=O)Nc1nc(C(C)C)n(C)n1 (stereo not shown) [Compound 26, 4-(5-(3,5-dichloro-4-fluorophenyl)-5-(trifluoromethyl)-4,5-dihydroisoxazol-3-yl)-N-(5-isopropyl-1-methyl-1H-1,2,4-triazol-3-yl)-2-methylbenzamide]",–,–,≥ 70%,–
"Cc1cc(C2=NOC(c3cc(Cl)c(F)c(Cl)c3)(C(F)(F)F)C2)ccc1C(=O)N(CC(F)(F)F)c1nc(C(C)C)n(CC(F)(F)F)n1 (stereo not shown) [Compound 31, 4-(5-(3,5-dichloro-4-fluorophenyl)-5-(trifluoromethyl)-4,5-dihydroisoxazol-3-yl)-N-(5-isopropyl-1-(2,2,2-trifluoroethyl)-1H-1,2,4-triazol-3-yl)-2-methyl-N-(2,2,2-trifluoroethyl)benzamide]",–,–,–,≥ 70%
"CCc1nc(NC(=O)c2ccc(C3=NOC(c4cc(Cl)cc(Cl)c4)(C(F)(F)F)C3)cc2C)nn1CC (stereo not shown) [Compound 38, 4-(5-(3,5-dichlorophenyl)-5-(trifluoromethyl)-4,5-dihydroisoxazol-3-yl)-N-(1,5-diethyl-1H-1,2,4-triazol-3-yl)-2-methylbenzamide]",–,–,≥ 70%,–
"Cc1cc(C2=NOC(c3cc(Cl)c(F)c(Cl)c3)(C(F)(F)F)C2)ccc1C(=O)N(C)c1nc(C(F)(F)F)n(C)n1 (stereo not shown) [Compound 40, 4-(5-(3,5-dichloro-4-fluorophenyl)-5-(trifluoromethyl)-4,5-dihydroisoxazol-3-yl)-N,2-dimethyl-N-(1-methyl-5-(trifluoromethyl)-1H-1,2,4-triazol-3-yl)benzamide]",≥ 70%,≥ 70%,≥ 70%,–
"Cc1cc(C2=NOC(c3cc(Cl)c(F)c(Cl)c3)(C(F)(F)F)C2)ccc1C(=O)N(C)c1nc(C(C)(F)F)n(C)n1 (stereo not shown) [Compound 46, 4-(5-(3,5-dichloro-4-fluorophenyl)-5-(trifluoromethyl)-4,5-dihydroisoxazol-3-yl)-N-(5-(1,1-difluoroethyl)-1-methyl-1H-1,2,4-triazol-3-yl)-N,2-dimethylbenzamide]",–,–,≥ 70%,–
"Cc1cc(C2=NOC(c3cc(Cl)c(F)c(Cl)c3)(C(F)(F)F)C2)ccc1C(=O)Nc1nc(C(C)(F)F)n(C)n1 (stereo not shown) [Compound 47, 4-(5-(3,5-dichloro-4-fluorophenyl)-5-(trifluoromethyl)-4,5-dihydroisoxazol-3-yl)-N-(5-(1,1-difluoroethyl)-1-methyl-1H-1,2,4-triazol-3-yl)-2-methylbenzamide]",–,–,≥ 70%,–
"Cc1cc(C2=NOC(c3cc(Cl)cc(Cl)c3)(C(F)(F)F)C2)ccc1C(=O)Nc1nc(C(C)(F)F)n(C)n1 (stereo not shown) [Compound 48, 4-(5-(3,5-dichlorophenyl)-5-(trifluoromethyl)-4,5-dihydroisoxazol-3-yl)-N-(5-(1,1-difluoroethyl)-1-methyl-1H-1,2,4-triazol-3-yl)-2-methylbenzamide]",–,–,≥ 70%,–
"Cc1cc(C2=NOC(c3cc(Cl)cc(Cl)c3)(C(F)(F)F)C2)ccc1C(=O)N(C)c1nc(C(C)(F)F)n(C)n1 (stereo not shown) [Compound 49, 4-(5-(3,5-dichlorophenyl)-5-(trifluoromethyl)-4,5-dihydroisoxazol-3-yl)-N-(5-(1,1-difluoroethyl)-1-methyl-1H-1,2,4-triazol-3-yl)-N,2-dimethylbenzamide]",–,–,≥ 70%,–
"Cc1cc(C2=NOC(c3cc(Cl)cc(Cl)c3)(C(F)(F)F)C2)ccc1C(=O)N(CC(F)(F)F)c1nc(CCC(F)(F)F)n(CC(F)(F)F)n1 (stereo not shown) [Compound 83, 4-(5-(3,5-dichlorophenyl)-5-(trifluoromethyl)-4,5-dihydroisoxazol-3-yl)-2-methyl-N-(2,2,2-trifluoroethyl)-N-(1-(2,2,2-trifluoroethyl)-5-(3,3,3-trifluoropropyl)-1H-1,2,4-triazol-3-yl)benzamide]",–,–,–,≥ 70%
"Cc1cc(C2=NOC(c3cc(Cl)cc(Cl)c3)(C(F)(F)F)C2)ccc1C(=O)N(CC(F)F)c1nc(CCC(F)(F)F)n(CC(F)F)n1 (stereo not shown) [Compound 87, 4-(5-(3,5-dichlorophenyl)-5-(trifluoromethyl)-4,5-dihydroisoxazol-3-yl)-N-(2,2-difluoroethyl)-N-(1-(2,2-difluoroethyl)-5-(3,3,3-trifluoropropyl)-1H-1,2,4-triazol-3-yl)-2-methylbenzamide]",–,–,–,≥ 70%
"Cc1cc(C2=NOC(c3cc(Cl)c(F)c(Cl)c3)(C(F)(F)F)C2)ccc1C(=O)N(CC(F)(F)F)c1nc(CCC(F)(F)F)n(CC(F)(F)F)n1 (stereo not shown) [Compound 111, 4-(5-(3,5-dichloro-4-fluorophenyl)-5-(trifluoromethyl)-4,5-dihydroisoxazol-3-yl)-2-methyl-N-(2,2,2-trifluoroethyl)-N-(1-(2,2,2-trifluoroethyl)-5-(3,3,3-trifluoropropyl)-1H-1,2,4-triazol-3-yl)benzamide]",–,–,–,≥ 70%
